Read-outs that look alike come from different tables or passages of the source.
Key:
[1] = test system: conjugation pair E. coli APEC-02 to E. coli HS-4 (plasmid pAPEC-02-211A-ColV, IncF); type: cell-based
[2] = test system: conjugation pair E. coli APEC-02 to E. coli HS-4 in chicken ceca explants; type: cell-based
Experimental: Ex vivo ceca explants serve as models for bacterial host interactions. Plasmid transfer and its inhibition by SCFAs were tested using chicken ceca explants to mimic in vivo conditions. Chicken ceca explants were harvested from 2 week-old chickens, cultured in vitro, and used in co-culture with donors/recipients in the presence or absence of SCFAs.

[3] = test system: conjugation pairs S. Kentucky CVM29188 to E. coli HS-4 and E. coli APEC-02 to E. coli HS-4; conditions: for reduction of donor and recipient strains / transconjugant populations: physiological concentrations of SCFAs in the chicken gut, both conjugation pairs
Experimental: Physiological concentrations of SCFAs in the chicken gut were added to broth conjugations with the conjugation pairs 1) S. Kentucky CVM29188 to E. coli HS-4, and 2) E. coli APEC-02 to E. coli HS-4 (FIG. 3).

[4] = test system: transfer of conjugative plasmid pCVM29188_146 (IncF) between E. coli MG1655 (pCVM29188_146) and E. coli HS-4; assay: In vitro broth conjugation with propionate at fly media concentrations; type: cell-based; conditions: as low as half the concentrations of standard Drosophila fly media
[5] = broth conjugation, varying molar concentrations between 0 and 1 molar (FIG. 4)
[6] = 25 mM, each SCFA used individually, ceca explants from 2 week-old chickens

Question: O=CO [formic acid] was tested. Which transconjugant populations [1] did it give?
Answer: Its transconjugant populations is “significantly reduced”.

Question: What about the “efficacy in inhibition of plasmid transfer” value (shortened to “efficacy in inhibition”) [2] of the same compound?
Answer: Its value is “showed efficacy”.

Question: How did the transconjugant populations [1, 5] turn out when CC(C)C(=O)O [isobutyric acid, isobutyric (2-methylbutanoic) acid] was run?
Answer: The transconjugant populations was “significantly reduced”.

Question: And the “efficacy in inhibition” value [2, 6]?
Answer: Its value is “showed efficacy”.

Question: CCC(=O)O [propionic acid] was tested. Which transconjugant populations [1, 5] did it give?
Answer: The transconjugant populations was “significantly reduced”.

Question: What about the “efficacy in inhibition” value [2, 6] of the same compound?
Answer: The value was “showed efficacy”.

Question: And the conjugation ([3]; physiological concentrations of propionate in the chicken gut)?
Answer: The conjugation was “did not significantly reduce”.

Question: What about the “conjugation frequency (transconjugants divided by donors)” value [4] of the same compound?
Answer: The value was “significant decreases”.

Question: With CC(=O)O [acetic acid] as the compound, how does the transconjugant populations [1] read?
Answer: The transconjugant populations was “significantly reduced”.

Question: What about the “efficacy in inhibition” value [2] of the same compound?
Answer: The value was “showed efficacy”.

Question: What about the “reduction of donor and recipient strains” value [3] of the same compound?
Answer: The value was “not”.

Question: What about the transconjugant populations [3] of the same compound?
Answer: Its transconjugant populations is “significantly reduced”.

Question: Which transconjugant populations [1, 5] does the source give for CCCCC(=O)O [valeric acid, valeric (pentanoic) acid] here?
Answer: Its transconjugant populations is “significantly reduced”.

Question: And the “efficacy in inhibition” value [2, 6]?
Answer: The value was “showed efficacy”.

Question: How did the transconjugant populations [1, 5] turn out when CCCC(=O)O [butyric acid, butyric (butanoic) acid] was run?
Answer: Its transconjugant populations is “significantly reduced”.

Question: What about the “efficacy in inhibition” value [2, 6] of the same compound?
Answer: Its value is “showed efficacy”.

Question: What about the “reduction of donor and recipient strains” value [3] of the same compound?
Answer: Its value is “not”.

Question: And the transconjugant populations [3]?
Answer: The transconjugant populations was “significantly reduced”.

Question: CC(C)CC(=O)O [isovaleric acid, isovaleric (3-methylbutanoic)] was tested. Which transconjugant populations [1, 5] did it give?
Answer: The transconjugant populations was “significantly reduced”.

Question: What about the “efficacy in inhibition” value [2, 6] of the same compound?
Answer: Its value is “showed efficacy”.

Source: patent US20230149483A1, “SHORT-CHAIN FATTY ACID USE TO MITIGATE ANT[…] VIRULENCE GENE TRANSFER IN THE GUT” (Iowa State University Research Foundation, Inc., priority 2021, published 2023)
